Laboratory results from article PMC11249646, “Small-Molecule Disruptors of the Interaction between Calcium- and Integrin-Binding Protein 1 and Integrin αIIbβ3 as Novel Antiplatelet Agents” (ACS Pharmacology & Translational Science, 2024).

Each compound was assayed against T1, CIB1 and αIIb interaction (CIB1-GST : F-αIIb peptide) (Homo sapiens, UniProt Q99828) (assay: FP assay, 1536-well qHTS format (primary and confirmatory screen)). Conditions: qHTS primary screen hits, Table S2; negative = inhibition.
T1 construct: made in house; host or cells: BL-21 plus RIL cells (E. coli)
T1 sequence (Q99828 1-191): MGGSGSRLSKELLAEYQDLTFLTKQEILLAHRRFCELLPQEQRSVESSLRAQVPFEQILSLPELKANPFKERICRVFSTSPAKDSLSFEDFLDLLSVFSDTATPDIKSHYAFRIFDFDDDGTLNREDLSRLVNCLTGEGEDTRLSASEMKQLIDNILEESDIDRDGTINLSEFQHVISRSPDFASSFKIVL
Format: binding

| SMILES | Efficacy (%) |
| --- | --- |
| CC(=O)NC(c1ccco1)c1cc(Cl)c2ccc(N(C)C)nc2c1O (stereo not drawn) [NCGC00183714-01] | -39 |
| CN(C)CCCNc1cc(O)c2ncccc2c1.O=C(O)C(F)(F)F [NCGC00183792-01] | -32 |
| O=C(O)C(F)(F)F.Oc1cc(NCCN2CCOCC2)cc2cccnc12 [NCGC00183799-01] | -45 |
| CN(C)CCCNC(=O)c1ccc(-c2cc(O)c3ncccc3c2)cc1 [NCGC00183808-07] | -38 |
| Nc1ccn(C2CO[C@H](CO)O2)c(=O)n1 (stereo partly drawn) [NCGC00183848-01] | -100 |
| CC(C)N1CCc2c(sc(NC(=O)Cc3ccccc3)c2-c2nc3ccccc3s2)C1.O=C(O)C(F)(F)F [NCGC00184841-01] | -104 |
| O=C(O)C(F)(F)F.O=S(=O)(Nc1ccc(O)c2ncccc12)c1ccccc1F [NCGC00184887-02] | -48 |
| C#CCCC(=O)Nc1sc2c(c1-c1nc3ccccc3s1)CCN(C(C)C)C2.O=C(O)C(F)(F)F [NCGC00185086-01] | -24 |
| O=C(O)C(F)(F)F.c1nc(NCCc2c[nH]cn2)c2ccc(-c3ccc4c(c3)OCO4)cc2n1 [NCGC00185971-01] | -28 |
| O=C1c2ccccc2C(=O)c2c(NCCc3ccc(O)cc3)ccc(NCCc3ccc(O)cc3)c21 [NCGC00186017-01] | -32 |
| O=C(O)C(F)(F)F.O=C1CCCC2=C1C1(CCCCC1)N=C(Nc1nc3ccccc3o1)N2 [NCGC00186052-01] | -23 |

Same assay, conditions: qHTS primary screen hits, Table S2; negative sign = inhibitory curve

| SMILES | Curve Class |
| --- | --- |
| CN(C)CCCNc1cc(O)c2ncccc2c1.O=C(O)C(F)(F)F [NCGC00183792-01] | -2.4 |
| CC(C)N1CCc2c(sc(NC(=O)Cc3ccccc3)c2-c2nc3ccccc3s2)C1.O=C(O)C(F)(F)F [NCGC00184841-01] | -2.1 |
| C#CCCC(=O)Nc1sc2c(c1-c1nc3ccccc3s1)CCN(C(C)C)C2.O=C(O)C(F)(F)F [NCGC00185086-01] | -1.4 |
| O=C1c2ccccc2C(=O)c2c(NCCc3ccc(O)cc3)ccc(NCCc3ccc(O)cc3)c21 [NCGC00186017-01] | -2.2 |

Same assay, conditions: qHTS primary screen hits, Table S2; negative sign = inhibitory curve; several classes where COUNT > 1

| SMILES | Curve Class |
| --- | --- |
| CC(=O)NC(c1ccco1)c1cc(Cl)c2ccc(N(C)C)nc2c1O (stereo not drawn) [NCGC00183714-01] | -2.2 |
| O=C(O)C(F)(F)F.Oc1cc(NCCN2CCOCC2)cc2cccnc12 [NCGC00183799-01] | -2.2 |
| Nc1ccn(C2CO[C@H](CO)O2)c(=O)n1 (stereo partly drawn) [NCGC00183848-01] | -3 |
| O=C(O)C(F)(F)F.O=S(=O)(Nc1ccc(O)c2ncccc12)c1ccccc1F [NCGC00184887-02] | -3 |
| O=C(O)C(F)(F)F.c1nc(NCCc2c[nH]cn2)c2ccc(-c3ccc4c(c3)OCO4)cc2n1 [NCGC00185971-01] | -2.4 |
| O=C(O)C(F)(F)F.O=C1CCCC2=C1C1(CCCCC1)N=C(Nc1nc3ccccc3o1)N2 [NCGC00186052-01] | -2.4 |

Same assay, conditions: qHTS primary screen hits, Table S2; read-out: IC50

| SMILES | IC50 [µM] |
| --- | --- |
| O=C(N/N=C/c1ccc([N+](=O)[O-])o1)c1ccc(O)cc1 [NCGC00179496-04] | 44.7 |
| CC(=O)NC(c1ccco1)c1cc(Cl)c2ccc(N(C)C)nc2c1O (stereo not drawn) [NCGC00183714-01] | 50.1 |
| CN(C)CCCNc1cc(O)c2ncccc2c1.O=C(O)C(F)(F)F [NCGC00183792-01] | 56.2 |
| O=C(O)C(F)(F)F.Oc1cc(NCCN2CCOCC2)cc2cccnc12 [NCGC00183799-01] | 50.1 |
| CN(C)CCCNC(=O)c1ccc(-c2cc(O)c3ncccc3c2)cc1 [NCGC00183808-07] | 30.2 |
| Nc1ccn(C2CO[C@H](CO)O2)c(=O)n1 (stereo partly drawn) [NCGC00183848-01] | 39.8 |
| CC(C)N1CCc2c(sc(NC(=O)Cc3ccccc3)c2-c2nc3ccccc3s2)C1.O=C(O)C(F)(F)F [NCGC00184841-01] | 28.2 |
| O=C(O)C(F)(F)F.O=S(=O)(Nc1ccc(O)c2ncccc12)c1ccccc1F [NCGC00184887-02] | 79.4 |
| C#CCCC(=O)Nc1sc2c(c1-c1nc3ccccc3s1)CCN(C(C)C)C2.O=C(O)C(F)(F)F [NCGC00185086-01] | 3.5 |
| O=C(O)C(F)(F)F.c1nc(NCCc2c[nH]cn2)c2ccc(-c3ccc4c(c3)OCO4)cc2n1 [NCGC00185971-01] | 79.4 |
| O=C1c2ccccc2C(=O)c2c(NCCc3ccc(O)cc3)ccc(NCCc3ccc(O)cc3)c21 [NCGC00186017-01] | 31.6 |
| O=C(O)C(F)(F)F.O=C1CCCC2=C1C1(CCCCC1)N=C(Nc1nc3ccccc3o1)N2 [NCGC00186052-01] | 56.2 |

Same assay, conditions: qHTS primary screen of LOPAC/NPACT libraries; negative = inhibition

| Efficacy (%) | SMILES |
| --- | --- |
| -27 | C=C1C(=O)O[C@H]2C3=C(C)CCC[C@]3(C)C(=O)C[C@@H]12 [NCGC00168931-02] |
| -30 | O=C1OCc2cc3cccc(O[C@@H]4O[C@H](CO)[C@@H](O)[C@H](O)[C@H]4O)c3c(O)c21 [NCGC00169010-02] |
| -26 | CC(C)=CCc1ccc(Oc2c(O)cc(C)cc2CO)c(C(=O)O)c1O [NCGC00169025-02] |
| -20 | C=C1C(=O)O[C@H]2[C@H]1[C@@H](OC(=O)C(C)CO)C[C@@]1(C)[C@H](O)CCC(=O)[C@H]21 (stereo partly drawn) [NCGC00169369-02] |
| -27 | C=CC/C=C\C/C=C\CCCCCCCc1cccc(O)c1C(=O)O [NCGC00169660-02] |
| -24 | CC(C)NC[C@@H](O)c1ccc(O)c(O)c1 [NCGC00179436-02] |
| -29 | C=C1C(=O)O[C@@H]2[C@H]1[C@H](O)C[C@]1(C)[C@@H](O)CC=C(C)[C@@H]21 [NCGC00180848-02] |
| -33 | CN(NC(=O)CC(=O)NN(C)C(=S)c1ccccc1)C(=S)c1ccccc1 [NCGC00183656-09] |
| -14 | Cc1ccc(O)c(N=Nc2ccccc2)n1 [NCGC00185991-01] |
| -13 | CCOC(=O)C1=C(C)NC(C)=C(C(=O)OCC)C1c1c(F)c(F)c(F)c(F)c1F [NCGC00186027-01] |
| -13 | Cl.O=C(CCCCCN1CCN(c2ccccc2-c2ccccc2)CC1)NC1CCCc2ccccc21 (stereo not drawn) [NCGC00186032-01] |

| SMILES | Efficacy (%) |
| --- | --- |
| O=[N+]([O-])/C=C/c1ccc2c(c1)OCO2 [NCGC00186015-01] | -24 |
| COc1cc(O)c2c(c1)/C=C/C[C@H](O)[C@H](O)C(=O)/C=C\C[C@H](C)OC2=O [NCGC00186421-07] | -26 |

Same assay, conditions: qHTS primary screen of LOPAC/NPACT libraries; negative sign = inhibitory curve

| Curve Class | SMILES |
| --- | --- |
| -2.4 | C=C1C(=O)O[C@H]2C3=C(C)CCC[C@]3(C)C(=O)C[C@@H]12 [NCGC00168931-02] |
| -2.4 | O=C1OCc2cc3cccc(O[C@@H]4O[C@H](CO)[C@@H](O)[C@H](O)[C@H]4O)c3c(O)c21 [NCGC00169010-02] |
| -2.4 | CC(C)=CCc1ccc(Oc2c(O)cc(C)cc2CO)c(C(=O)O)c1O [NCGC00169025-02] |
| -1.4 | C=C1C(=O)O[C@H]2[C@H]1[C@@H](OC(=O)C(C)CO)C[C@@]1(C)[C@H](O)CCC(=O)[C@H]21 (stereo partly drawn) [NCGC00169369-02] |
| -1.4 | C=CC/C=C\C/C=C\CCCCCCCc1cccc(O)c1C(=O)O [NCGC00169660-02] |
| -2.2 | CC(C)NC[C@@H](O)c1ccc(O)c(O)c1 [NCGC00179436-02] |
| -2.4 | C=C1C(=O)O[C@@H]2[C@H]1[C@H](O)C[C@]1(C)[C@@H](O)CC=C(C)[C@@H]21 [NCGC00180848-02] |
| -2.4 | CN(NC(=O)CC(=O)NN(C)C(=S)c1ccccc1)C(=S)c1ccccc1 [NCGC00183656-09] |
| -1.2 | Cc1ccc(O)c(N=Nc2ccccc2)n1 [NCGC00185991-01] |
| -1.2 | CCOC(=O)C1=C(C)NC(C)=C(C(=O)OCC)C1c1c(F)c(F)c(F)c(F)c1F [NCGC00186027-01] |
| -1.2 | Cl.O=C(CCCCCN1CCN(c2ccccc2-c2ccccc2)CC1)NC1CCCc2ccccc21 (stereo not drawn) [NCGC00186032-01] |

| SMILES | Curve Class |
| --- | --- |
| O=[N+]([O-])/C=C/c1ccc2c(c1)OCO2 [NCGC00186015-01] | -2.2 |
| COc1cc(O)c2c(c1)/C=C/C[C@H](O)[C@H](O)C(=O)/C=C\C[C@H](C)OC2=O [NCGC00186421-07] | -2.4 |

Same assay, conditions: qHTS primary screen of LOPAC/NPACT libraries; read-out: IC50

| IC50 [µM] | SMILES |
| --- | --- |
| 56.2 | C=C1C(=O)O[C@H]2C3=C(C)CCC[C@]3(C)C(=O)C[C@@H]12 [NCGC00168931-02] |
| 22.4 | O=C1OCc2cc3cccc(O[C@@H]4O[C@H](CO)[C@@H](O)[C@H](O)[C@H]4O)c3c(O)c21 [NCGC00169010-02] |
| 44.7 | CC(C)=CCc1ccc(Oc2c(O)cc(C)cc2CO)c(C(=O)O)c1O [NCGC00169025-02] |
| 22.4 | C=C1C(=O)O[C@H]2[C@H]1[C@@H](OC(=O)C(C)CO)C[C@@]1(C)[C@H](O)CCC(=O)[C@H]21 (stereo partly drawn) [NCGC00169369-02] |
| 25.1 | C=CC/C=C\C/C=C\CCCCCCCc1cccc(O)c1C(=O)O [NCGC00169660-02] |
| 50.1 | CC(C)NC[C@@H](O)c1ccc(O)c(O)c1 [NCGC00179436-02] |
| 20 | C=C1C(=O)O[C@@H]2[C@H]1[C@H](O)C[C@]1(C)[C@@H](O)CC=C(C)[C@@H]21 [NCGC00180848-02] |
| 35.5 | CN(NC(=O)CC(=O)NN(C)C(=S)c1ccccc1)C(=S)c1ccccc1 [NCGC00183656-09] |
| 1.8 | Cc1ccc(O)c(N=Nc2ccccc2)n1 [NCGC00185991-01] |
| 6.3 | CCOC(=O)C1=C(C)NC(C)=C(C(=O)OCC)C1c1c(F)c(F)c(F)c(F)c1F [NCGC00186027-01] |
| 25.1 | Cl.O=C(CCCCCN1CCN(c2ccccc2-c2ccccc2)CC1)NC1CCCc2ccccc21 (stereo not drawn) [NCGC00186032-01] |

| SMILES | IC50 [µM] |
| --- | --- |
| O=[N+]([O-])/C=C/c1ccc2c(c1)OCO2 [NCGC00186015-01] | 56.2 |
| COc1cc(O)c2c(c1)/C=C/C[C@H](O)[C@H](O)C(=O)/C=C\C[C@H](C)OC2=O [NCGC00186421-07] | 25.1 |
